Measured values: US20080221078A1, “Use of a CB1 Antagonist for Treating Side Effects and Negative Symptoms of Schizophrenia” (priority 2005, published 2008)

How the values were obtained:
rats = assay: MK-801-induced persistent latent inhibition (conditioned emotional response procedure); format: in vivo, rat
From the text: When the bottle was not present, the hole was covered by a metal lid. Licks were detected by a Campden Instruments drinkometer. The preexposed to-be-conditioned stimulus was a 10 sec, 80 dB, 2.8 kHz tone produced by a Sonalert module. Shock was supplied through the floor by a Campden Instruments shock generator and shock scrambler set at 0.5 mA and 1 sec duration. Equipment programming and data recording were computer controlled.
Water in the test apparatus was given in addition to the daily ration of 1 h given in the home cages.
Shock immediately followed tone termination. The first tone-shock pairing was given 5 min after the start of the session. After the last pairing, rats were left in the experimental chamber for an additional 5 min.
When the rat completed 75 licks the tone was presented for 5 min. The following times were recorded: Time to first lick, time to complete licks 1-50, time to complete licks 51-75 (before tone onset) and time to complete licks 76-100 (after tone onset). Times to complete licks 76-100 were logarithmically transformed to allow parametric analysis of variance. Longer log times indicate stronger suppression of drinking.

[1] = test system: Female Wistar rats on high fat diet; assay: Antipsychotic (olanzapine) induced weight gain
From the text: Animals: Female Wistar rats on high fat diet were used in this Example.

Male Sprague-Dawley rats [2] = assay: Amphetamine-induced locomotion; format: in vivo, rat
Experimental: (§1) Animals: Male CD-1 mice (Charles River Laboratories) weighing 20-30 g were used. Male Sprague-Dawley rats (Charles River Laboratories) weighing 250-433 g were used. […] Procedure: A standard automated locomotion assay was employed (see, for example: R. Christopher Pierce and Peter Kalivas. (1997) Locomotor Behavior. In: Current Protocols in Neuroscience, Volume 3, 8.1.1-8.1.8. G. P. Taylor, Editor. New York: John Wiley & Sons, Inc.). Horizontal activity was measured by beam breaks of photocells lining the chamber exterior to the activity boxes. The activity was measured for 60 min during spontaneous locomotion or 90 min for the PCP or amphetamine-induced assays. Example 2 was administered per os (po) with a 1 hr pre-treatment. […] PCP or amphetamine was administered ip or subcutaneous (sc), respectively, with no pre-treatment. When pre-treatment time elapsed for each rodent, the activity cage was transferred from its holding rack and placed into its own locomotion chamber. Independent start time is possible with the recording of activity commencing almost immediately. The computer automatically times out each chamber individually when the session has ended. Drugs: Doses of Example 2 for mice were 0.3, 1, 3, and 10 mg/kg, p.o. The lowest dose was not tested in spontaneous locomotion for rats. The three highest doses of Example 2 were tested against PCP-induced and amphetamine-induced locomotion in mice and rats, respectively. The conventional antipsychotic haloperidol was used in co-administration with Example 2 (1, 3, and 10 mg/kg) at the doses of 0.1 and 0.2 mg/kg in mice to reverse PCP-induced locomotion. Haloperidol was co-administered at the dose of 0.3 mg/kg in rats to reverse amphetamine-induced locomotion.
(§2) Phencyclidine and amphetamine were dissolved in distilled water.

Male Sprague-Dawley rats [3] = assay: Antipsychotic induced catalepsy (bar test); conditions: for olanzapine-induced catalepsy: olanzapine 10 mg/kg ip
Experimental: (§3) Animals: Male Sprague-Dawley rats (Charles River Laboratories) weighing 267-457 g were used. The animals were housed under standard laboratory conditions as outlined in the NIH Guide for Care and Use of Laboratory Animals. They were maintained on a 12:12 light/dark cycle with tap water and Lab Diet rodent chow ad libitum. Rats were acclimatized to the experimental room for 60 min prior to injections. Procedure: The test for catalepsy consists of placing an individual animal in a white translucent plastic box (26×20×15 cm) with a wooden dowel mounted horizontally 10 cm from the floor and 4 cm from one end of the box. The floor is covered with approximately 1 cm of bedding material. Test animals are transferred from the vivarium in their home cages to the experimental room and are allowed to acclimatize for 60 mins. Five animals are kept in a cage. The animals are transferred into another cage after treatment. […] 30 mins after the second treatment, animals were placed individually in the white translucent plastic boxes and tested for catalepsy following a one minute acclimatization period. A group of five animals are tested at a time. Each treatment group consists of 10 animals.
(§4) At the end of the one minute acclimation period, each animal is gently grasped around the shoulders and under the forepaws, and gently placed on the wooden dowel. The amount of time each rat spends with at least one forepaw on the bar determined for a maximum period of 180 seconds. This is repeated three times.
(§5) Haloperidol was used at the dose of 1 mg/kg.
(§6) Haloperidol was dissolved in distilled water via dilution of a 5 mg/ml stock solution in distilled water. Olanzapine was dissolved in three drops of HCl prior to the addition of distilled water to full volume.

Male Sprague Dawley rats = assay: Holeboard test (working memory performance); format: in vivo, rat
From the text: Similarly, a working memory performance in a rat hole board model has been used to measure various cognition deficits. The hole board task is a well-known and widely used assay to measure working and reference memory in rodents. This model utilizes a board with 8 holes, each baited with a food reward, thus taking advantage of the rodent's natural propensity to forage for food. In a modified version, it has now been able to assess improvements in working memory performance without the use of amnestic agents. Male Sprague Dawley rats are allowed to find and consume 4 of the 8 rewards and then removed to the home cage for 2 minutes. They are then returned and allowed to find and consume the remaining 4 rewards. Any returns to holes already visited are considered working memory errors.
Animals: Male Sprague Dawley rats (Charles River) were housed on a 12 hour light/dark cycle, with lights on at 06:00. Rats were maintained at 80% of their normal body weight, with average starting weights at 200-220 grams. Rats were acclimated to the testing chamber (Med-Associates, Inc. hole board in a ventilated, sound-attenuating cubicle) for four 10-minute trials over a two-day period 24 hours prior to drug treatments. The testing chamber contains eight holes, each of which is baited with a food reward (cocoa puff). Procedure: Each experiment was carried over two-three days, with a 3 day (experiment 1), 4 day (experiment 2), and 3 day (experiment 3) washout in between. Thirty two animals were used for each experiment, with each animal pseudo-randomly assigned to treatment groups such that each animal received two of the four-five treatments, with an even distribution of all possible treatment-treatment combinations. There were a total of 16 animals per treatment group. On test days, rats were injected intraperitoneally (i.p.) with N-{1-[bis(4-chlorophenyl)methyl]azetidin-3-yl}-N-(3,5-difluorophenyl)methylsulfonamide (Example 2) (Exp 1: 0.3, 1, or 3 mg/kg; Exp 2: 1, 3 or 10 mg/kg) or vehicle (distilled water with 1% tween). For Exp 3, rats were injected i.p. with risperidone followed by Example 2 (Exp 3: 0.010, 0.10, or 1.0 mg/kg with 3 mg/kg Example 2) or vehicle (0.9% NaCl with 1% tween). The rats were then placed in the test chamber 60 minutes later. After consuming 4 food rewards, the rats were removed from the chamber for 2 minutes and returned to their home cage. They were then returned to the chamber and allowed to retrieve and finish the remaining four rewards, or for a total of 10 minutes. […] The number of visits to holes that they have already visited were noted. Drugs: Doses of Example 2 were 0.3, 1 and 3 mg/kg (experiment 1) and 1, 3 and 10 mg/kg (experiment 2). Example 2 was put into suspension with distilled water (exp 1 & 2) or 0.9% NaCl (exp 3), with the addition of tween 80. Doses of risperidone (antipsychotic, Sigma) were 0.010, 0.10, and 1.0 mg/kg (experiment 3). risperidone was solubilized in 0.9% NaCl with the addition of 1% tween 80,

Male CD-1 mice = assay: PCP-induced locomotion; format: in vivo, mouse
Experimental: as §1, §2

[4] = Antipsychotic induced catalepsy (bar test); conditions: male, Sprague-Dawley, rat, in vivo, intraperitoneal
Experimental: as §3, §4, §5, §6

C[C@]12N[C@H](Cc3ccccc31)c1ccccc12 [MK-801, dizocilpine]
latent inhibition (LI) with 40 preexposures and 5 conditioning trials (rats; MK-801 0.05 mg/kg i.p., 30 minutes before conditioning): showed LI in spite of extended conditioning

N-{1-[Bis(4-chlorophenyl)methyl]azetidin-3-yl}-N-(3,5-difluorophenyl)methylsulfonamide [Example 2]
MK801-induced persistent latent inhibition (rats; 1, 3 and 10 mg/kg i.p., 60 minutes prior to pre-exposure and conditioning): reversed
weight gain vs. saline controls ([1]; 10 mg/kg Example 2 i.p. with olanzapine 3 mg/kg i.p.): not significant from saline controls
weight vs. saline ([1]; Example 2 alone 10 mg/kg i.p.): no significant effect
weight gain elicited by olanzapine ([1]; co-administration of Example 2 1, 3, and 10 mg/kg i.p. with olanzapine 3 mg/kg i.p.): dose dependent attenuation
reversal of locomotor hyperactivity induced by d-AMPH (Male Sprague-Dawley rats [2]; rats, Example 2 alone 1, 3, and 10 mg/kg p.o.): no significant reversal
effect of co-treatment with haloperidol on amphetamine-induced locomotion (Male Sprague-Dawley rats [2]; rats, haloperidol 0.3 mg/kg ip with Example 2): yielded the same effects whether or not Example 2 was present or absent
effect of co-treatment with olanzapine on amphetamine-induced locomotion (Male Sprague-Dawley rats [2]; rats, olanzapine 1 and 3 mg/kg ip with Example 2): yielded the same effects whether or not Example 2 was present or absent
olanzapine-induced catalepsy (Male Sprague-Dawley rats [3]; Example 2 3 mg/kg orally): significantly reversed
haloperidol-induced catalepsy (Male Sprague-Dawley rats [3]; Example 2 10 mg/kg orally, haloperidol 1 mg/kg ip): significantly reversed
olanzapine-induced catalepsy (Male Sprague-Dawley rats [3]; Example 2 10 mg/kg orally): significantly reversed
number of working memory errors compared to vehicle treated animals (Male Sprague Dawley rats; Experiment 1, 0.3 mg/kg i.p., after 2 minute delay): but not the 0.3 or 1 mg/kg doses
number of working memory errors compared to vehicle treated animals (Male Sprague Dawley rats; Experiment 1, 1 mg/kg i.p., after 2 minute delay): but not the 0.3 or 1 mg/kg doses
number of working memory errors compared to vehicle treated animals (Male Sprague Dawley rats; Experiment 1, 3 mg/kg i.p., after 2 minute delay, p<0.05): significant decrease
number of working memory errors compared to vehicle treated animals (Male Sprague Dawley rats; Experiment 2, 3 mg/kg i.p., after 2 minute delay, p<0.05): significant decrease
number of working memory errors compared to vehicle treated animals (Male Sprague Dawley rats; Experiment 2, 10 mg/kg i.p., after 2 minute delay, p<0.05): significant decrease
number of working memory errors compared to vehicle treated animals (Male Sprague Dawley rats; Experiment 3, 3 mg/kg Example 2 in combination with 0.10 mg/kg risperidone i.p., p<0.05): significant decrease
number of working memory errors compared to vehicle treated animals (Male Sprague Dawley rats; Experiment 3, 3 mg/kg i.p. Example 2 alone, p<0.05): significant decrease
minimum effective dose for improvement in working memory performance (Male Sprague Dawley rats; i.p.): 3 mg/kg
reversal of locomotor hyperactivity induced by PCP (Male CD-1 mice; Example 2 alone 1, 3, and 10 mg/kg p.o.): no significant reversal
effect of co-treatment with haloperidol on PCP-induced locomotion (Male CD-1 mice; haloperidol 0.1 and 0.2 mg/kg ip with Example 2 1, 3, 10 mg/kg p.o.): yielded the same effects whether or not Example 2 was present or absent
effect of co-treatment with olanzapine on PCP-induced locomotion (Male CD-1 mice; olanzapine 0.03 and 0.3 mg/kg ip with Example 2 1, 3, 10 mg/kg p.o.): yielded the same effects whether or not Example 2 was present or absent

NCC(=O)O [glycine, Glycine]
MK-801-induced abnormally persistent LI (rats; glycine 0.8 g/kg i.p., 30 minutes prior to conditioning): reversed

O=C(CCCN1CCC(O)(c2ccc(Cl)cc2)CC1)c1ccc(F)cc1 [haloperidol, reference compound]
reversal of locomotor hyperactivity (Male Sprague-Dawley rats [2]; haloperidol 0.3 mg/kg ip): highly significant reversal
ED50 at 30 min [4]: 0.64 mg/kg
induction of catalepsy compared to vehicle treated animals (Male Sprague-Dawley rats [3]; haloperidol 1 and 3 mg/kg): significantly induces catalepsy
